The assay deals with Sucrase-isomaltase, intestinal (Rattus norvegicus, UniProt P23739). In words: Inhibition of rat intestinal sucrase.
Sequence of Sucrase-isomaltase, intestinal (P23739 1-1013 limits assumed): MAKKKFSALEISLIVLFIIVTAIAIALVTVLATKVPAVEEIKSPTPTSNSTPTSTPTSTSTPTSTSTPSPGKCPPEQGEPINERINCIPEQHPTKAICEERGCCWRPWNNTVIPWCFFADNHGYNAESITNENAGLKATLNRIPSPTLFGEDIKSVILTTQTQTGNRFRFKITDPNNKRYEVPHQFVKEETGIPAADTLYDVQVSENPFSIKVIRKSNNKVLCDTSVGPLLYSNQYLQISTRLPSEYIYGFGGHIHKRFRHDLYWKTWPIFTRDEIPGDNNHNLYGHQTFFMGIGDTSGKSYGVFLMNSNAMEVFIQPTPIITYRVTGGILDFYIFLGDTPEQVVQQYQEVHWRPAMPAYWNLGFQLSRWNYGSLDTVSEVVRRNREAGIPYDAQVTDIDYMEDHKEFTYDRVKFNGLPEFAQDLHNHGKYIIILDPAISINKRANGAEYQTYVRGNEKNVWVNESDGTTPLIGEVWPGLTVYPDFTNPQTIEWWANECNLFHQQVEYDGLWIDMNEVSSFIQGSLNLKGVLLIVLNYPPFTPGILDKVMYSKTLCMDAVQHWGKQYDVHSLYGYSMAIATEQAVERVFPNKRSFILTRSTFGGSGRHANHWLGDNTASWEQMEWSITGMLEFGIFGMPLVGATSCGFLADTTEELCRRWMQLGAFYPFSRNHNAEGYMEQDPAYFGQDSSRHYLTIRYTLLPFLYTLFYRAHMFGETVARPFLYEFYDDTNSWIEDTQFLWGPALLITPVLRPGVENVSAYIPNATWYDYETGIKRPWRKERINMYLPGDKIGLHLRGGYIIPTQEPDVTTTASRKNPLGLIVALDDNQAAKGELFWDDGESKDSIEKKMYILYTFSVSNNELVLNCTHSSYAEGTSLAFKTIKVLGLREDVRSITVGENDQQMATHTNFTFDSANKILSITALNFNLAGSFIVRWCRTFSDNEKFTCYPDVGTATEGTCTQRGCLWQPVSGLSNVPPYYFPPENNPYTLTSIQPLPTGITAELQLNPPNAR
Sequence of Sucrase-isomaltase, intestinal (P23739 1014-1841 limits assumed): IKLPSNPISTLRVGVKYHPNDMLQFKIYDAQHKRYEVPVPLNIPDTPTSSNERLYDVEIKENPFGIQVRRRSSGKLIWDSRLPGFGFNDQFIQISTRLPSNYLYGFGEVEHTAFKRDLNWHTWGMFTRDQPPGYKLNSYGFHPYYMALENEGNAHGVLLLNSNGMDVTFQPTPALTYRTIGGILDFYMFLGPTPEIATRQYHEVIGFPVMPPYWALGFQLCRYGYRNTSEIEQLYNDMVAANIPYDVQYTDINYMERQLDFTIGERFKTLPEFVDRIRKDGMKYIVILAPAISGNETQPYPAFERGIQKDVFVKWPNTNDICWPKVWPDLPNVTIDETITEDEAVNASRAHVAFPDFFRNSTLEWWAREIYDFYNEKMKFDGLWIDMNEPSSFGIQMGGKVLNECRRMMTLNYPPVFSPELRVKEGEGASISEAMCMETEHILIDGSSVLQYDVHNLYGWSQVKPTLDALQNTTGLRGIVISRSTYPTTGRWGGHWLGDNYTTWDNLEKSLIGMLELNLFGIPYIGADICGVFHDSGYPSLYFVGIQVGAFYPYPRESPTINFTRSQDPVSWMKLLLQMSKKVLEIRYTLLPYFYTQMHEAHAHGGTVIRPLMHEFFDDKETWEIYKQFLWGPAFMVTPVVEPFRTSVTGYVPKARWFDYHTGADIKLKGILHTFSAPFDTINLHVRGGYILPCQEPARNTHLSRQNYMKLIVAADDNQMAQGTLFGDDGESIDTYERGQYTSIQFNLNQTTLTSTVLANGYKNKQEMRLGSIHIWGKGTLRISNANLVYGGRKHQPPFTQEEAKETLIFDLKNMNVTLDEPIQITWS

The molecule `C[C@@H]1O[C@@H](O[C@H]2[C@H](O)[C@@H](O)[C@H](OC[C@H]3O[C@@H](OC(=O)[C@]45CCC(C)(C)C[C@H]4C4=CC[C@@H]6[C@@]7(C)CC[C@H](O[C@@H]8OC[C@H](O[C@@H]9O[C@H](CO)[C@@H](O)[C@H](O)[C@H]9O)[C@H](O)[C@H]8O[C@@H]8O[C@@H](C)[C@H](O)[C@@H](O[C@@H]9O[C@H](CO)[C@@H](O)[C@H](O)[C@H]9O)[C@H]8O)C(C)(C)[C@@H]7CC[C@@]6(C)[C@]4(C)CC5)[C@H](O)[C@@H](O)[C@@H]3O)O[C@@H]2CO)[C@H](O)[C@H](O)[C@H]1O` [CERNUOSIDE A] returned an IC50 of 59.5 µM. To `C[C@@H]1O[C@@H](O[C@H]2[C@H](O)[C@@H](O)[C@H](OC[C@H]3O[C@@H](OC(=O)[C@]45CCC(C)(C)C[C@H]4C4=CC[C@@H]6[C@@]7(C)CC[C@H](O[C@@H]8OC[C@H](O[C@@H]9O[C@H](CO)[C@@H](O)[C@H](O)[C@H]9O)[C@H](O)[C@H]8O[C@@H]8O[C@@H](C)[C@H](O)[C@@H](O[C@@H]9O[C@H](CO)[C@@H](O)[C@H](O)[C@H]9O)[C@H]8O)[C@@](C)(CO)[C@@H]7CC[C@@]6(C)[C@]4(C)CC5)[C@H](O)[C@@H](O)[C@@H]3O)O[C@@H]2CO)[C@H](O)[C@H](O)[C@H]1O` [CERNUOSIDE B] belongs 45.8 µM.

These data come from ChEMBL document CHEMBL1155682, “Cernuosides A and B, two sucrase inhibitors from Pulsatilla cernua” (J Nat Prod, 2000).
